The values that follow come from US7713939B2, “Illudin analogs useful as antitumor agents” (priority 1996, dated 2010).

SMILES strings stand for the structures. A value given as a limit tells only on which side of the number the result lay.

In data set [1] the test system is MV522 (human lung carcinoma cell line). The experiment in a line: 2 hour exposure, [3H]-thymidine incorporation. It counts as cell-based. The protocol:
(§1) To assess cytotoxic effects, various concentrations of illudins were added to cultures of MV522 (human lung carcinoma cell line) and 8392 (B-cell leukemia/lymphoma) cells for 48 hours, then cell growth/viability was determined by trypan blue exclusion. As an alternative to 48 hour continuous exposure studies, cells were plated in liquid culture in 96 well plates, exposed to various concentrations of illudins for 2 hours, pulsed with [^3H]-thymidine for one to two hours and harvested onto glass filters. The filter papers were added to vials containing scintillation fluid and residual radioactivity determined in a beta (scintillation) counter.
(In general: Incorporation of labelled thymidine or its analogues reports DNA synthesis.)

For data set [2], the system named is 8392 (B-cell leukemia/lymphoma) cells. Nature of the data set: 48 hour continuous exposure, trypan blue exclusion. Format: cell-based. The conditions noted are these: 48 hour exposure. As for the experimental part: as §1
Data set [3] relates to MV522 (human lung carcinoma cell line). The experiment in a line: 48 hour continuous exposure, trypan blue exclusion. It counts as cell-based. The conditions noted are these: 48 hour exposure. The protocol:
as §1

The test system of data set [4] is 8392 (B-cell leukemia/lymphoma) cells. Nature of the data set: 2 hour exposure, [3H]-thymidine incorporation. Format: cell-based. As for the experimental part:
as §1

For data set [5], the system named is MV522 lung carcinoma line. The conditions noted are these: for efficacy in MV522 xenograft (in words): summary of the in vivo table. From the text: Several analogs were chosen for in vivo studies. […] Drug therapy was started 10 days after inoculation on a daily basis via IP route for 5 consecutive days. The animals were monitored for 3 weeks after start of therapy.
BALB/c nu/nu 4-week old female mice weighing 18-22 g were obtained from Simonsen, Inc. (Gilroy, Calif.) and maintained in the athymic mouse colony of the University of California (San Diego, Calif.) under pathogen free conditions using HEPA filter hoods. Animals were provided with sterilized food and water ad libitum in groups of 5 in plastic cages vented with polyester fiber filter covers. Clean, sterilized gowns, glove, face masks, and shoe and hood covers were worn by all personnel handling the animals. All studies were conducted in accordance with guidelines of the NIH “Guide for Care and Use of Animals” and approved by the University Institutional Animal Care and Use Committee (Protocol 3-006-2)
The MV522 lung carcinoma line used for xenograft studies was derived as described by Kelner et al. (Anticancer Res., 15: 867-872; 873-878 (1995)) and maintained in antibiotic-free RPMI 1640 (Mediatech, Herndon, Va.) supplemented with 10% fetal bovine serum and 2 mM glutamine in 37° C. humidified carbon dioxide incubator.
Each animal was earmarked and followed individually throughout the experiments. Mice received s.c. injections of the parental cell line MV522 using 10 million cells/inoculation over the shoulder. Ten days after s.c. implantation of the MV522 cells, when s.c. tumors were approximately 3×3 mm in size, animals received the desired drug and dosage. The effect of the drug on life span was calculated from median survival.
Although MV522 cells kill mice by metastases, primary s.c. tumor growth over the shoulder was monitored starting on the first day of treatment and at weekly intervals thereafter. Tumor size was measured in two perpendicular diameters. Tumor weights were estimated according to the formula w=(width)^2×length/2). Relative weights (RW) were calculated to standardized variability in tumor size among test groups at initiation of treatment using the formula RW=Wt/wi, where Wi is the tumor weight for a given animal at beginning of drug treatment and Wt is tumor weight at a subsequent time. Animals were necropsied, and organs were examined for evidence of metastases.
Comparison of survival curves between groups of animals was by the method of Kaplan and Meir. For comparison of relative tumor weights between multiple groups of animals, ordinary ANOVA followed by Turkey-Kramer multiple Comparison post ANOVA analysis was preformed (Kelner et al. (Aniticancer Res., 15: 867-872; 873-878 (1995)). Probability values (p) less than 0.05 were considered statistically significant.

The test system of data set [6] is Dunning leukemia. To be noted: rats with Dunning leukemia; cited from earlier work.
For data set [7], the system named is solid tumor systems. The conditions noted are these: cited from earlier work.

For `CC1=C(CC2CC(C=O)CC(C=O)C2O)C2=C(C)C3(CC3)C(C)(O)C(=O)C2=C1` (mixture of isomers) [Compound 13], the IC50 – broadly, the concentration that inhibits the measured activity by half – in data set [1] is 5.12 ± 0.65 µM.

With `CC(=O)OCOCC1=C(C)C=C2C(=O)C(C)(O)C3(CC3)C(C)=C21` (stereo not shown) [Compound 8], the IC50 in data set [1] amounted to 0.87 ± 0.09 µM; in data set [2], 15.1 ± 2.2 µM; in data set [3], 0.63 ± 0.08 µM.

On to `CC1=C(CCCO)C2=C(C)C3(CC3)C(C)(O)C(=O)C2=C1` (stereo not shown) [Compound 9], for which the IC50 came out at 47.1 ± 11 µM in data set [4] and 15.1 ± 2.2 µM in data set [2].

Take `CC1=C(CCC=O)C2=C(C)C3(CC3)C(C)(O)C(=O)C2=C1` (stereo not shown) [Compound 10]: the IC50 in data set [4] turned out to be 29.4 ± 1.6 µM; in data set [2], 14.5 ± 1.65 µM.

Consider `CC1=C(C=O)C2=C(C)C3(CC3)C(C)(O)C(=O)C2=C1` (stereo not shown) [Compound 11], for which the figures for the IC50 in data set [4], in data set [1] and in data set [2] were greater than 100 µM, 4.9 ± 0.9 µM and 40.4 ± 6.7 µM, respectively.

As to `CC1=C2C(=CC3(C)COCOC23)C(=O)C(C)(O)C12CC2` (stereo not shown) [Compound 14], the results for the IC50 in data set [4] and in data set [1] were 9.65 ± 1.2 µM and 0.115 ± 0.03 µM, respectively.

For `CCOCC1=C(C)C=C2C(=O)C(C)(O)C3(CC3)C(C)=C21` (stereo not shown) [Compound 16], the “efficacy in MV522 xenograft (in words)” value in data set [5] is reported as “effective”.

Consider `COC(C)(C)OCC1=C(C)C=C2C(=O)C(C)(O)C3(CC3)C(C)=C21` (stereo not shown) [Compound 21], for which the figures for the IC50 in data set [4] and in data set [3] were 34.3 ± 9.4 µM and 0.93 ± 0.25 µM, respectively. Besides, the “efficacy in MV522 xenograft (in words)” value in data set [5] is “more efficacious than HMAF”.

As to `CC1=C(COCCO)C2=C(C)C3(CC3)C(C)(O)C(=O)C2=C1` (stereo not shown) [Compound 22], the IC50 came out at 31.7 ± 1.4 µM in data set [4] and 0.68 ± 0.18 µM in data set [3].

With `CC1=C(CSc2ccc(O)cc2)C2=C(C)C3(CC3)C(C)(O)C(=O)C2=C1` (stereo not shown) [Compound 23], the IC50 in data set [4] came to 138 ± 13 µM; in data set [1], 2.92 ± 1.14 µM; in data set [3], 2.75 ± 0.51 µM.

`CC1=C(CSCc2ccccc2)C2=C(C)C3(CC3)C(C)(O)C(=O)C2=C1` (stereo not shown) [Compound 24] came in with an IC50 in data set [4] of 12.8 ± 2.14 µM.

In data set [4], `COC(=O)CSCC1=C(C)C=C2C(=O)C(C)(O)C3(CC3)C(C)=C21` (stereo not shown) [Compound 25] had an IC50 greater than 25 µM.

Consider `CC1=C(CSCC(O)CO)C2=C(C)C3(CC3)C(C)(O)C(=O)C2=C1` (stereo not shown) [Compound 32], for which the IC50 is greater than 50 µM in data set [4] and 0.595 ± 0.185 µM in data set [1]. In addition, the “efficacy in MV522 xenograft (in words)” value in data set [5] is “effective”.

For the compound `CC1=C2C=CC=C2C(=O)C2(OCCO2)C12CC2` [Compound 33], the figures for the IC50 in data set [4], in data set [1] and in data set [3] were 29.9 ± 3.3 µM, greater than 4 µM and 4.6 ± 0.2 µM, respectively. For the same compound, in data set [5], the “efficacy in MV522 xenograft (in words)” value is “effective”.

`CC1=C2C(=CC(C)(C)[C@@H]2O)C(=O)[C@](C)(O)C12CC2` [Illudin M]: in data set [6], the life span entry is listed as “significantly increased”. In addition, the therapeutic index entry in data set [7] is on record as “low”.

Take `CO[C@@]12[C@H](COC(N)=O)C3=C(C(=O)C(C)=C(N)C3=O)N1C[C@@H]1N[C@@H]12` [Mitomycin C, reference compound]: the “day before which all animals succumbed” value in data set [5] (mouse, in vivo) was less than 31 days.
